Results on twelve compounds are retold here after US10906905B2, “Five-membered heteroaryl ring bridged ring derivative, preparation method therefor and medical use thereof” (Jiangsu Hengrui Medicine Co., Ltd., priority 2016, dated 2021).

One series has as its target TGFβRI kinase ALK5 (Homo sapiens (Human), UniProt P36897). Put plainly: Inhibition of TGFβRI kinase ALK5 activity (TGFβRI kinase assay kit, ADP-Glo). It counts as biochemical. The settings on record: ATP 50 μM; read-out: IC50 of inhibition effect on TGFβRI kinase ALK5 activity. On the procedure:
The inhibition effect of TGFβRI kinase activity in vitro was determined by the following method.
The inhibition effect of the compounds of the present invention on TGFβRI kinase ALK5 activity was determined by the following experimental method:
TGFβRI kinase assay kit (V4093, Promega) was used to assay enzyme activity. 2 μl of enzyme solution (the final concentration of enzyme in the reaction system was 2 ng/μL) formulated with reaction buffer (40 mM Tris pH 7.5, 20 mM MgCl2, 0.1 mg/ml BSA), 1 μl of a 3-fold gradient dilution of the compounds dissolved in 5% DMSO, and 2 μl of a mixed solution of ATP and TGFβRI substrate peptide (the final concentration of ATP was 50 μM, and the final concentration of substrate was 0.2 μg/μL) were added successively to a 384-well plate (4514, Corning). After reaction at 27° C. for 2.5 hours, 5 μl of ADP-Glo solution in the kit was added to each well, then the plate was placed at 27° C. for 40 minutes. 10 μl of kinase assay reagent was then added to each well, then the plate was placed at 27° C. for 30 minutes. The chemiluminescence signal values were measured with a Victor 3 (PerkinElmer) multi-function microplate reader. The IC50 values of the compounds for enzyme inhibition were calculated using Graphpad prism software based on each concentration of the compound and the corresponding signal value thereof.
(In ADP-Glo the light output rises with the ADP produced.)

For series [1], the system named is Smad signaling pathway of TGFβRI. Put plainly: Inhibition of Smad signaling pathway of TGFβRI (3TP-lux luciferase reporter in HepG2 cell). The following applies: Homo sapiens, read-out: IC50 on the inhibition of Smad signaling pathway of TGFβRI. The series is classed as cell-based. On the procedure:
The inhibition effect of the compounds of the present invention on Smad signaling pathway of TGFβRI was determined by the following in vitro test.
The inhibition effect of the compounds of the present invention on Smad signaling pathway of TGFβRI was determined by the following experimental method:
The seeding density is 2.5×10^4 cells/well. The cells were incubated overnight at 37° C., 5% CO2. Each well was replaced with fresh EMEM medium containing 10% FBS. […] The cells were further incubated for 24 hours at 37° C., 5% CO2. Each well was replaced with 90 μL of EMEM medium containing 0.5% FBS, then the cells were starved for 6 hours. The compounds were formulated as a 20 mM stock solution, which was diluted in gradient to a 400× concentration with 100% DMSO, and further 40-fold diluted with EMEM containing 0.5% FBS. The cell culture plate was taken out, then 10 μl of diluted compound or control (0.25% DMSO) was added to each well respectively. The plate was shaken gently, then incubated for 18 hours in an incubator at 37° C., 5% CO2. Finally, 100 μl of detection reagent ONE-Glo™ Luciferase Assay (E6110, Promega) was added to each well, and the plate was placed in dark at room temperature for 10 minutes. The chemiluminescence signal values were measured with a Victor 3.0 (PerkinElmer). The IC50 values of the compounds were calculated using Graphpad Prism software based on each concentration of the compound and the corresponding signal value thereof.
A general note: In a reporter assay the amount or activity of a reporter protein is the signal.

The next series has as its system NIH3T3 cell. The series can be described thus: Inhibition of NIH3T3 cell proliferation (CellTiter-Glo). The series is classed as cell-based. The following applies: Mus musculus, 72 hours, 0.5% FBS. On the procedure: The inhibition effect of the compounds of the present invention on NIH3T3 cell proliferation was determined by the following in vitro test.
The inhibition effect of the compounds of the present invention on NIH3T3 cell proliferation was determined by the following experimental method:
On a 96-well white plate with transparent bottom (3903, Corning), 100 μL of NIH3T3 cell (GNM6, Cell Bank of Typical Culture Collection Committee of Chinese Academy of Sciences) was seeded in a DMEM medium containing 10% FBS in each well. The seeding density is 2000 cells/well. The cells were incubated overnight at 37° C., 5% CO2. After overnight incubation, each well was replaced with 90 μL of DMEM medium containing 0.5% FBS. 10 μl of a 3-fold gradient dilution of the compounds with DMEM medium containing 0.5% FBS was then added, and the plate was incubated for 72 hours in a cell incubator at 37° C., 5% CO2. Finally, 50 μL of CellTiter-Glo (G7573, Promega) was added to each well. After incubation for 10 minutes at room temperature, the chemiluminescence signal values were measured with a Victor 3 microplate reader (PerkinElmer). The IC50 values of the compounds were calculated using Graphpad Prism software based on each concentration of the compound and the corresponding signal value thereof.
Background: In ATP-based viability assays light output follows the ATP content of the culture.

The nature of series [2]: Pharmacokinetics assay in rats after intragastrical administration. The settings on record: both sexes, Sprague-Dawley, rat, plasma, po, SD rats, 2 mg/kg. The series is classed as in vivo. On the procedure: Rats were used as test animals. The drug concentration in plasma at different time points was determined by LC/MS/MS method after intragastrical administration of the compounds of Examples 1-1, 1-2, 2-1, 3-1, the compound with retention time of 6.631 minutes among Examples 9-1 and 9-2, and the compounds of Examples 33 and 39-1 to rats. The pharmacokinetic behavior of the compounds of the present invention was studied and evaluated in rats.
Compounds of Examples 1-1, 1-2, 2-1, 3-1, compound with retention time of 6.631 minutes among Examples 9-1 and 9-2, and compounds of Examples 33 and 39-1.
Twenty-eight healthy adult Sprague-Dawley (SD) rats (half male and half female) were purchased from SINO-BRITISH SIPPR/BK LAB. ANIMAL LTD., CO, with Certificate No.: SCXK (Shanghai) 2008-0016, and equally divided into 7 groups (4 rats per group).
A certain amount of the test compound was weighed, and added with 5% by volume of DMSO, 5% by volume of Tween 80, and 90% by volume of physiological saline were added to prepare a 0.2 mg/mL colorless, clear and transparent solution.
After an overnight fast, SD rats were administered intragastrically the test compounds at an administration dosage of 2.0 mg/kg and an administration volume of 10.0 mL/kg.
The rats were intragastrically administered the compounds of Examples 1-1, 1-2, 2-1, 3-1, the compound with retention time of 6.631 minutes among Examples 9-1 and 9-2, and the compounds of Examples 33 and 39-1.0.2 mL of blood was taken from the orbital sinus before administration and at 0.5, 1.0, 2.0, 4.0, 6.0, 8.0, 11.0 and 24.0 hours after administration. The samples were stored in heparinized tubes, and centrifuged for 10 minutes at 4° C. at 3,500 rpm to separate the blood plasma. The plasma samples were stored at −20° C. The rats were fed 2 hours after administration.
The content of the test compounds in the plasma of rats after intragastrical administration of the test compounds at different concentrations was determined: 25 μL of rat plasma at each time after administration was taken, added with 50 μL (100 ng/mL) of the internal standard solution of camptothecin and 175 μL of acetonitrile, shaken vertically for 5 minutes, and centrifuged for 10 minutes (4000 rpm). 3.0 μL of the supernatant was taken from the plasma samples for LC/MS/MS analysis.

Setting [3] is: HepG2 cell, 3TP-lux plasmid, 18 hours.

Read-outs that look alike come from different tables or passages of the source.

Chain of TGFβRI kinase ALK5 (P36897 34-503): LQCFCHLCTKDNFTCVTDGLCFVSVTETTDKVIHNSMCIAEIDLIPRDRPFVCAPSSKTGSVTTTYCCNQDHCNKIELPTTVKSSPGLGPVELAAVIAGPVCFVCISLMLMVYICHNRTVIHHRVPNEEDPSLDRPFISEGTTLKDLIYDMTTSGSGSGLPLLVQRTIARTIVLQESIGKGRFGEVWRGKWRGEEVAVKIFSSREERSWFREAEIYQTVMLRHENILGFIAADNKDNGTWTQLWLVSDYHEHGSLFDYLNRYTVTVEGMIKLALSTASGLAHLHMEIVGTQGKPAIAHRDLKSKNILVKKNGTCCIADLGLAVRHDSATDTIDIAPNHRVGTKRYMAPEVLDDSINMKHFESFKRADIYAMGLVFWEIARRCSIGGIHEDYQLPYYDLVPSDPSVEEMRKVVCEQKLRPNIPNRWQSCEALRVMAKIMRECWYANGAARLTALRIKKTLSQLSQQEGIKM

For the compound `Cc1cccc(-c2nc3n(c2-c2ccnc(-c4ccc(S(N)(=O)=O)cc4)c2)[C@H]2CC[C@@H]3C2)n1` [Example 13-1, 4-(4-((5S,8R)-2-(6-Methylpyridin-2-yl)-5,6,7,8-tetrahydro-5,8-methanoimidazo[1,2-a]pyridin-3-yl)pyridin-2-yl)benzenesulfonamide], the figures for the half-inhibitory concentration (IC50) (at TGFβRI kinase ALK5; in series [1] (setting [3])) were 11 nM and 37 nM, respectively.

For the compound `Cc1cccc(-c2nc3n(c2-c2ccc4nccc(C(N)=O)c4c2)C2CCC3C2)n1` (stereo not shown) [Example 1, 6-(2-(6-Methylpyridin-2-yl)-5,6,7,8-tetrahydro-5,8-methanoimidazo[1,2-a]pyridin-3-yl) quinoline-4-carboxamide], the IC50 at TGFβRI kinase ALK5 worked out at 14 nM; in series [1] (setting [3]), 57 nM; with NIH3T3 cell, 80 nM.

`Cc1cccc(-c2nc3n(c2-c2ccc4nccc(C(N)=O)c4c2)[C@@H]2CC[C@H]3C2)n1` [Example 1-2, 6-((5R,8S)-2-(6-Methylpyridin-2-yl)-5,6,7,8-tetrahydro-5,8-methanoimidazo[1,2-a]pyridin-3-yl)quinoline-4-carboxamide]: the IC50 was 16 nM at TGFβRI kinase ALK5 and 15 nM in series [1] (setting [3]). In addition, the Vd/F in series [2] (read-out: Apparent distribution volume Vz/F) amounted to 14.6 ± 7.63 L/kg. In addition, the area under the curve (AUC) in series [2] (read-out: Area under curve AUC) was 475 ± 267 ng·h/mL. In series [2] (read-out: Clearance CLz/F), the CL/F was determined as 89.2 ± 47.4 mL/min/kg. The half-life in series [2] (read-out: Half-life T1/2 (converted)) was 115 ± 8.4 min. For the same compound, the Cmax in series [2] (read-out: Plasma concentration Cmax) stood at 146 ± 81 ng/mL. For the same compound, in series [2] (read-out: Residence time MRT), the mean residence time MRT worked out at 3.53 ± 0.93 h.

Consider `NC(=O)c1nnc2cc(-c3c(-c4ccccn4)nc4n3[C@H]3CC[C@@H]4C3)ccn12` [Example 47-1, 7-((5S,8R)-2-(Pyridin-2-yl)-5,6,7,8-tetrahydro-5,8-methanoimidazo[1,2-a]pyridin-3-yl)-[1,2,4]triazolo[4,3-a]pyridine-3-carboxamide], for which the IC50 came to 39 nM on TGFβRI kinase ALK5 and 53 nM in series [1] (setting [3]).

As to `CS(=O)(=O)c1ccc(-c2cc(-c3c(-c4ccccn4)nc4n3[C@H]3CC[C@@H]4C3)ccn2)cc1` [Example 46-1, (5S,8R)-3-(2-(4-(Methylsulfonyl)phenyl)pyridin-4-yl)-2-(pyridin-2-yl)-5,6,7,8-tetrahydro-5,8-methanoimidazo[1,2-a]pyridine], the values for the half-maximal inhibitory concentration (IC50) (on TGFβRI kinase ALK5; in series [1] (setting [3])) were 34 nM and 79 nM, respectively.

Regarding `Cc1cccc(-c2nc3n(c2-c2ccnc(Nc4ccc(S(N)(=O)=O)cc4)c2)C2CCC3C2)n1` (stereo not shown) [Example 14, 4-((4-(2-(6-Methylpyridin-2-yl)-5,6,7,8-tetrahydro-5,8-methanoimidazo[1,2-a]pyridin-3-yl)pyridin-2-yl)amino)benzenesulfonamide], the IC50 is 31 nM at TGFβRI kinase ALK5 and 81 nM in series [1] (HepG2, 18 h).

Turning to `Cc1cccc(-c2nc3n(c2-c2ccnc(N)c2)C2CCC3C2)n1` (stereo not shown) [Example 32, 4-(2-(6-Methylpyridin-2-yl)-5,6,7,8-tetrahydro-5,8-methanoimidazo[1,2-a]pyridin-3-yl)pyridin-2-amine], the IC50 on TGFβRI kinase ALK5 is 9 nM; in series [1] (HepG2, 18 h), 8 nM.

Consider `Cc1cccc(-c2nc3n(c2-c2ccnc(NCCO)c2)C2CCC3C2)n1` (stereo not shown) [Example 5, 2-((4-(2-(6-Methylpyridin-2-yl)-5,6,7,8-tetrahydro-5,8-methanoimidazo[1,2-a]pyridin-3-yl)pyridin-2-yl)amino)ethanol], for which the 50% inhibitory concentration (IC50) at TGFβRI kinase ALK5 was 59 nM; in series [1] (setting [3]), 39 nM.

On to `Cc1cccc(-c2nc3n(c2-c2ccnc(NC[C@H](C)O)c2)[C@H]2CC[C@@H]3C2)n1` [Example 18-1, (S)-1-((4-((5S,8R)-2-(6-Methylpyridin-2-yl)-5,6,7,8-tetrahydro-5,8-methanoimidazo[1,2-a]pyridin-3-yl)pyridin-2-yl)amino)propan-2-ol], for which the IC50 on TGFβRI kinase ALK5 came out at 80 nM; in series [1] (setting [3]) it was 88 nM.

In the case of `Cc1cccc(-c2nc3n(c2-c2ccnc(NCCO)c2)[C@H]2CC[C@@H]3C2)n1` [Example 5-1, 2-((4-((5S,8R)-2-(6-Methylpyridin-2-yl)-5,6,7,8-tetrahydro-5,8-methanoimidazo[1,2-a]pyridin-3-yl)pyridin-2-yl)amino)ethanol], the half-inhibitory concentration (IC50) is 46 nM at TGFβRI kinase ALK5 and 75 nM in series [1] (HepG2, 18 h).

Consider `Cc1cccc(-c2nc3n(c2-c2ccc4nnc(C(N)=O)n4c2)[C@@H]2CC[C@H]3C2)n1` [Example 2-2, 6-((5R,8S)-2-(6-Methylpyridin-2-yl)-5,6,7,8-tetrahydro-5,8-methanoimidazo[1,2-a]pyridin-3-yl)[1,2,4]triazolo[4,3-a]pyridine-3-carboxamide], for which the figures for the IC50 (on TGFβRI kinase ALK5; in series [1] (setting [3])) were 3 nM and 36 nM, respectively.

Regarding `Cc1cccc(-c2nc3n(c2-c2ccnc(-c4cnn(S(C)(=O)=O)c4)c2)C2CCC3C2)n1` (stereo not shown) [Example 43, 2-(6-Methylpyridin-2-yl)-3-(2-(1-(methylsulfonyl)-1H-pyrazol-4-yl)pyridin-4-yl)-5,6,7,8-tetrahydro-5,8-methanoimidazo[1,2-a]pyridine], the IC50 is 21 nM at TGFβRI kinase ALK5 and 11 nM in series [1] (HepG2, 18 h).

As a reminder, the IC50 is the concentration that gives 50% inhibition. The AUC is concentration integrated over time. In general, MRT refers to a mean duration of stay, worked out from the concentration-time curve.
